Test results taken from patent publication US8580965B2, “Substituted sulfonamide compounds” (Gruenenthal GmbH, priority 2006, dated 2013).

Key:
[1] = molecular target: T1, human B1R receptor (bradykinin 1 receptor) (Homo sapiens, UniProt P46663); assay: FLIPR Ca2+ assay (Fluo-4) on CHO K1 cells stably transfected with the human B1R gene; % activation and % inhibition at 10 μM; assay type: cell-based; settings: CHO-K1, test substance 10 μM; CHO K1 hB1R cells; Ca2+ inflow after 0.5 nM Lys-Des-Arg9-bradykinin; read-out: B1R antagonism, human [10 μM] % inhibition
T1 construct: host or cells: CHO K1 cells (hB1R cells)
T1 sequence (P46663 1-353): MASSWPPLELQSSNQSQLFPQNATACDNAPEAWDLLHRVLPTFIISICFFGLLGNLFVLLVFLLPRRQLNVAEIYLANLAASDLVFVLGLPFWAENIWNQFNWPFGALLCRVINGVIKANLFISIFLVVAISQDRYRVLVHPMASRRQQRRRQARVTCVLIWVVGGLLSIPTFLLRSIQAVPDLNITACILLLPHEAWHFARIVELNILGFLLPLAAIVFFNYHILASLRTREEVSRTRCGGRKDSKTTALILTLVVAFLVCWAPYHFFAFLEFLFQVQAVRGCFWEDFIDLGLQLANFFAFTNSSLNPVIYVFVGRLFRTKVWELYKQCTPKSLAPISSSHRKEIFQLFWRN
Procedure, shortened: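 Fluo-4 Ca2+ flux on FLIPR in stable hB1R or rB1R CHO K1 lines, two additions. Agonism: 10 µM compound versus 0.5 nM Lys-Des-Arg9-BK (human) or 100 nM Des-Arg9-BK (rat); antagonism: same agonists applied 10 min later, suppression expressed against maximum achievable inhibition.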

[2] = molecular target: T2, B1R receptor of the rat (bradykinin 1 receptor) (Rattus norvegicus, UniProt P97583); assay: FLIPR Ca2+ assay (Fluo-4) on CHO K1 cells stably transfected with the B1R gene of the rat; % activation and % inhibition at 10 μM; assay type: cell-based; settings: CHO-K1, test substance 10 μM; CHO K1 rB1R cells; Ca2+ inflow after 100 nM Des-Arg9-bradykinin; read-out: B1R antagonism, rat [10 μM] % inhibition
T2 construct: host or cells: CHO K1 cells (rB1R cells)
T2 sequence (P97583 1-337): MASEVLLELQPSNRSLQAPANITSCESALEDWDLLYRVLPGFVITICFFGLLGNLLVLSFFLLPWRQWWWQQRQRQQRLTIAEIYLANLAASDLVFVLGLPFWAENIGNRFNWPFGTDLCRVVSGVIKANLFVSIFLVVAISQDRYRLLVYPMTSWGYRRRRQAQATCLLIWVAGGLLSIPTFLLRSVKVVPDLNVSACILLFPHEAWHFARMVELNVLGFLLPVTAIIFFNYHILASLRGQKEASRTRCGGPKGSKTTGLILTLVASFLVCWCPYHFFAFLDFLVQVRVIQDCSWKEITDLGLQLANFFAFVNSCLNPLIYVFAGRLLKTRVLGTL
Protocol: The agonistic or antagonistic action of substances can be quantified on the bradykinin receptor 1 (B1R) of the species human and rat with ectopically expressing cell lines (CHO K1 cells) and with the aid of a Ca^2+-sensitive dye (Fluo-4) using a fluorescent imaging plate reader (FLIPR). The indication in % activation is based on the Ca^2+ signal after addition of Lys-Des-Arg^9-bradykinin (0.5 nM) or Des-Arg^9-bradykinin (100 nM). Antagonists result in a suppression of the Ca^2+ influx following administration of the agonist. The % inhibition in comparison with the maximum achievable inhibition is indicated.
Functional Investigation on the Bradykinin 1 Receptor (B1R)
The agonistic or antagonistic action of substances can be determined on the bradykinin 1 receptor (B1R) of the human and rat species with the following assay. According to this assay, the Ca^2+ inflow through the channel is quantified with the aid of a Ca^2+-sensitive dyes (Fluo-4 type, Molecular Probes Europe BV, Leiden, The Netherlands) in a fluorescent imaging plate reader (FLIPR, Molecular Devices, Sunnyvale, USA).
Chinese Hamster Ovary cells (CHO K1 cells) which are stably transfected with the human B1R gene (hB1R cells, Euroscreen s.a., Gosselies, Belgium) or the B1R gene of the rat (rB1R cells, Axxam, Milan, Italy) are used. For functional investigations, these cells are plated-out on black 96-well plates with a clear base (BD Biosciences, Heidelberg, Germany) in a density of 20,000-25,000 cells/well. Overnight, the cells are incubated at 37° C. and 5% CO2 in culture medium (hB1R cells: Nutrient Mixture Ham's F12, Gibco Invitrogen GmbH, Karlsruhe, Germany; rB1R cells: D-MEM/F12, Gibco Invitrogen, Karlsruhe, Germany) with 10 vol. % FBS (foetal bovine serum, Gibco Invitrogen GmbH, Karlsruhe, Germany). On the following day, the cells are loaded with 2.13 μM Fluo-4 (Molecular Probes Europe BV, Leiden, The Netherlands) in HBSS buffer (Hank's buffered saline solution, Gibco Invitrogen GmbH, Karlsruhe, Germany) […] (Sigma-Aldrich, Taufkirchen, Germany) and 10 mM HEPES (Sigma-Aldrich, Taufkirchen, Germany) for 60 min at 37° C. The plates are subsequently washed 2× with HBSS buffer, and HBSS buffer which additionally contains 0.1% BSA (bovine serum albumin; Sigma-Aldrich, Taufkirchen, Germany), 5.6 mM glucose and 0.05% gelatine (Merck KGaA, Darmstadt, Germany) is added. After a further incubation of 20 minutes at room temperature, the plates are inserted into the FLIPR for Ca^2+ measurement. The Ca^2+-dependent fluorescence is measured here before and after addition of substances (λex=488 nm, λem=540 nm). The quantification is effected by measurement of the highest fluorescence intensity (FC, fluorescence counts) over time.
The FLIPR protocol comprises 2 additions of substance. Test substances (10 μM) are first pipetted on to the cells and the Ca^2+ inflow is compared with the control (hB1R: Lys-Des-Arg^9-bradykinin 0.5 nM; rB1R: Des-Arg^9-bradykinin 100 nM). The value in % activation based on the Ca^2+ signal after addition of Lys-Des-Arg^9-bradykinin (0.5 nM) or Des-Arg^9-bradykinin (100 nM) is obtained therefrom. After incubation for 10 minutes, 0.5 nM Lys-Des-Arg^9-bradykinin (hB1R) or 100 nM Des-Arg^9-bradykinin (rB1R) are applied and the inflow of Ca^2+ is likewise determined. Antagonists lead to a suppression of the Ca^2+ inflow. % inhibition compared with the maximum inhibition which can be achieved is calculated. The compounds show a good activity on the human and on the rat receptor. The following data were determined by way of example: […]

## COc1ccc(S(=O)(=O)N2CCC(OCC(=O)N3CCC(O)(c4ccccn4)CC3)C2)cc1OC (centres unmarked) [Example 52, 2-[1-(3,4-dimethoxy-phenylsulfonyl)-pyrrolidin-3-yloxy]-1-(4′-hydroxy-3′,4′,5′,6′-tetrahydro-2′H-[2,4′]bipyridinyl-1′-yl)-ethanone]
[1]
  inhibition at 10 µM: -10%
[2]
  inhibition at 10 µM: 11.9%

## CN(CCOCC(=O)N1CCC(O)(c2ccccn2)CC1)S(=O)(=O)c1ccc(F)cc1 [Example 56, 4-fluoro-N-{2-[2-(4′-hydroxy-3′,4′,5′,6′-tetrahydro-2′H-[2,4′]bipyridinyl-1′-yl)-2-oxo-ethoxy]-ethyl}-N-methyl-phenylsulfonamide]
[1]
  inhibition at 10 µM: -13.5%
[2]
  inhibition at 10 µM: -1.13%

## O=C(COC1CCN(S(=O)(=O)c2ccc(F)cc2)C1)N1CCC(O)(c2ccccn2)CC1 (centres unmarked) [Example 58, 2-[1-(4-fluoro-phenylsulfonyl)-pyrrolidin-3-yloxy]-1-(4′-hydroxy-3′,4′,5′,6′-tetrahydro-2′H-[2,4′]bipyridinyl-1′-yl)-ethanone]
[1]
  inhibition at 10 µM: -23.8%
[2]
  inhibition at 10 µM: -7.05%

## O=C(COC1CCN(S(=O)(=O)c2cccc(C(F)(F)F)c2)C1)N1CCC(O)(c2ccccn2)CC1 (centres unmarked) [Example 59, 1-(4′-hydroxy-3′,4′,5′,6′-tetrahydro-2′H-[2,4′]bipyridinyl-1′-yl)-2-[1-(3-trifluoromethyl-phenylsulfonyl)-pyrrolidin-3-yloxy]-ethanone]
[1]
  inhibition at 10 µM: -24%
[2]
  inhibition at 10 µM: 16.6%

## Cc1ccc(F)cc1S(=O)(=O)N(C)CCOCC(=O)N1CCC(O)(c2ccc(Cl)cc2)CC1 [Example 61, N-(2-(2-(4-(4-chlorophenyl)-4-hydroxypiperidin-1-yl)-2-oxoethoxy)ethyl)-5-fluoro-N,2-dimethylphenylsulfonamide]
[1]
  inhibition at 10 µM: 56.2%
[2]
  inhibition at 10 µM: 86.4%

## Cc1ccc(F)cc1S(=O)(=O)N(C)CCOCC(=O)N1CCC(O)(Cc2ccccc2)CC1 [Example 62, N-{2-[2-(4-benzyl-4-hydroxy-piperidin-1-yl)-2-oxo-ethoxy]-ethyl}-5-fluoro-2,N-dimethyl-phenylsulfonamide]
[1]
  inhibition at 10 µM: 7.47%
[2]
  inhibition at 10 µM: 22.9%

## O=C(COCC1CCCCN1S(=O)(=O)c1cccc2ccccc12)N1CCC(O)(c2ccc(Cl)cc2)CC1 (centres unmarked) [Example 63, 1-(4-(4-chlorophenyl)-4-hydroxypiperidin-1-yl)-2-((1-(naphthalen-1-ylsulfonyl)piperidin-2-yl)methoxy)ethanone]
[1]
  inhibition at 10 µM: 84.8%
[2]
  inhibition at 10 µM: 91.8%

## O=C(COCC1CCCCN1S(=O)(=O)c1cccc2ccccc12)N1CCC(O)(Cc2ccccc2)CC1 (centres unmarked) [Example 64, 1-(4-benzyl-4-hydroxy-piperidin-1-yl)-2-[1-(naphthalene-1-sulfonyl)-piperidin-2-ylmethoxy]-ethanone]
[1]
  inhibition at 10 µM: 69.2%
[2]
  inhibition at 10 µM: 64.2%

## O=C(COCC1CCCCN1S(=O)(=O)c1cccc(C(F)(F)F)c1)N1CCC(O)(Cc2ccccc2)CC1 (centres unmarked) [Example 65, 1-(4-benzyl-4-hydroxy-piperidin-1-yl)-2-[1-(3-trifluoromethyl-phenylsulfonyl)-piperidin-2-ylmethoxy]-ethanone]
[1]
  inhibition at 10 µM: 21%
[2]
  inhibition at 10 µM: 25.8%

## Cc1cc(C)c(S(=O)(=O)N2CCCCC2COCC(=O)N2CCC(O)(c3ccc(Cl)cc3)CC2)c(C)c1 (centres unmarked) [Example 66, 1-(4-(4-chlorophenyl)-4-hydroxypiperidin-1-yl)-2-((1-(mesitylsulfonyl)piperidin-2-yl)methoxy)ethanone]
[1]
  inhibition at 10 µM: 84.5%
[2]
  inhibition at 10 µM: 99.2%

## Cc1cc(C)c(S(=O)(=O)N2CCCCC2COCC(=O)N2CCC(O)(Cc3ccccc3)CC2)c(C)c1 (centres unmarked) [Example 67, 1-(4-benzyl-4-hydroxy-piperidin-1-yl)-2-[1-(2,4,6-trimethyl-phenylsulfonyl)-piperidin-2-ylmethoxy]-ethanone]
[1]
  inhibition at 10 µM: 55.4%
[2]
  inhibition at 10 µM: 86.5%

## Cc1cc(C)c(S(=O)(=O)N2CCCCC2COCC(=O)N2CCC(O)(c3cccnc3)CC2)c(C)c1 (centres unmarked) [Example 68, 1-(4′-hydroxy-3′,4′,5′,6′-tetrahydro-2′H-[3,4′]bipyridinyl-1′-yl)-2-[1-(2,4,6-trimethyl-phenylsulfonyl)-piperidin-2-ylmethoxy]-ethanone]
[1]
  inhibition at 10 µM: 74.9%
[2]
  inhibition at 10 µM: 79%

## O=C(COCc1sccc1N(Cc1ccccc1)S(=O)(=O)c1ccc(Cl)c(Cl)c1)N1CCC(O)(Cc2ccccc2)CC1 [Example 69, N-benzyl-N-{2-[2-(4-benzyl-4-hydroxy-piperidin-1-yl)-2-oxo-ethoxymethyl]-thiophen-3-yl}-3,4-dichloro-phenylsulfonamide]
[1]
  inhibition at 10 µM: 9.45%
[2]
  inhibition at 10 µM: 28.4%

## CN(CCOCC(=O)N1CCC(O)(c2ccccn2)CC1)S(=O)(=O)c1cc(F)cc(F)c1 [Example 70, 3,5-difluoro-N-{2-[2-(4′-hydroxy-3′,4′,5′,6′-tetrahydro-2′H-[2,4′]bipyridinyl-1′-yl)-2-oxo-ethoxy]-ethyl}-N-methyl-phenylsulfonamide]
[1]
  inhibition at 10 µM: 7.12%
[2]
  inhibition at 10 µM: -12.2%

## CN(CCOCC(=O)N1CCC(O)(c2ccccn2)CC1)S(=O)(=O)c1cc(F)ccc1F [Example 71, 2,5-difluoro-N-{2-[2-(4′-hydroxy-3′,4′,5′,6′-tetrahydro-2′H-[2,4′]bipyridinyl-1′-yl)-2-oxo-ethoxy]-ethyl}-N-methyl-phenylsulfonamide]
[1]
  inhibition at 10 µM: -0.46%
[2]
  inhibition at 10 µM: 4.46%

## O=C(COCC1Cc2ccccc2CN1S(=O)(=O)c1ccc(F)cc1)N1CCC(O)(c2ccccn2)CC1 (centres unmarked) [Example 72, 2-[2-(4-fluoro-phenylsulfonyl)-1,2,3,4-tetrahydro-isoquinolin-3-ylmethoxy]-1-(4′-hydroxy-3′,4′,5′,6′-tetrahydro-2′H-[2,4′]bipyridinyl-1′-yl)-ethanone]
[1]
  inhibition at 10 µM: 3.33%
[2]
  inhibition at 10 µM: 18.7%
